Experimental data published in patent publication US20230129359A1, “MUSCARINIC RECEPTOR 4 ANTAGONISTS AND METHODS OF USE” (Neurocrine Biosciences, Inc., priority 2020, published 2023).

What follows are compounds tested against T1, human M4 receptor (Homo sapiens, UniProt P08173) (assay: Radioligand ([3H]N-methylscopolamine) binding assay, membranes from CHO cells expressing human M4 receptor). Conditions: Ki against human M4 receptor; membranes from CHO cells; tritiated N-methylscopolamine 1.5 nM; read-out: K.
T1 construct: expressed in transfected cells; host or cells: CHO cells
T1 sequence (P08173 1-479): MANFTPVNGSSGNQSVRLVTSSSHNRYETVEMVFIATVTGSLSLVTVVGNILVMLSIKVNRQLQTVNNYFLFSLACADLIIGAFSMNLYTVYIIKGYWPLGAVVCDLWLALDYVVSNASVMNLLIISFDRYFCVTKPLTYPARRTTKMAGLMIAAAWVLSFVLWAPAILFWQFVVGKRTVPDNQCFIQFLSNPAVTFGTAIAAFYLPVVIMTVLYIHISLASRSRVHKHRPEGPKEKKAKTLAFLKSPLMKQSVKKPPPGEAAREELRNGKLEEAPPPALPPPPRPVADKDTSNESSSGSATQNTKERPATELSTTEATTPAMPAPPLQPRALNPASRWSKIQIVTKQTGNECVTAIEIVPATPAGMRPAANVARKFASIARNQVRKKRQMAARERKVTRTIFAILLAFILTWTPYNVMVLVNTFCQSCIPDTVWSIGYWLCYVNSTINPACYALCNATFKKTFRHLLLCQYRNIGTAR
Outline: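 Ki values derive from displacement of tritiated N-methylscopolamine (1.5 nM) from human M4 receptor in CHO membranes. Membranes, radioligand and twelve-point compound series were incubated together at 37 °C for 90 minutes in pH 7.4 HEPES/NaCl/MgCl2/EDTA buffer. Rapid vacuum filtration over polyethylenimine-pretreated filters was followed by radioactivity counting.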

| Ki [nM] | SMILES |
| --- | --- |
| < 10 | [2H]c1c([2H])c([2H])c(CN2CC3(CC(NC(=O)N4[C@H](C)CN(c5ncc(C(F)(F)F)cn5)C[C@@H]4C)C3)C2)c([2H])c1[2H] [Compound 273, (2R,6S)-N-{2-[(^2H5)benzyl]-2-azaspiro[3.3]heptan-6-yl}-2,6-dimethyl-4-[5-(trifluoromethyl)pyrimidin-2-yl]piperazine-1-carboxamide] |
| 10 to 100 | C[C@@H]1CN(c2ncc(C(F)(F)F)cn2)C[C@@H](C)N1C(=O)NCC1CC2(C1)CN(Cc1ccccc1)C2 [Compound 68, (2R,6R)-N-({2-benzyl-2-azaspiro[3.3]heptan-6-yl}methyl)-2,6-dimethyl-4-[5-(trifluoromethyl)pyrimidin-2-yl]piperazine-1-carboxamide] |
| 100 to 1000 | C[C@@H]1CN(c2cnc(C(F)(F)F)cn2)[C@@H](C)CN1C(=O)OC1CC2(C1)CN(Cc1ccc(S(C)(=O)=O)cc1)C2 [Compound 503, 2-[(4-methanesulfonylphenyl)methyl]-2-azaspiro[3.3]heptan-6-yl (2R,5S)-2,5-dimethyl-4-[5-(trifluoromethyl)pyrazin-2-yl]piperazine-1-carboxylate] |
| 100 to 1000 | COc1ccc2nc(N3C[C@@H](C)N(C(=O)OC4CC5(C4)CN(Cc4ccccc4)C5)C[C@H]3C)cnc2c1 [Compound 201, 2-benzyl-2-azaspiro[3.3]heptan-6-yl (2R,5R)-4-(6-methoxyquinoxalin-2-yl)-2,5-dimethylpiperazine-1-carboxylate] |
| < 10 | C[C@@H]1CN(c2cnc3cc(C(F)(F)F)ccc3n2)[C@@H](C)CN1C(=O)OC1CC2(C1)CN(Cc1ccccc1)C2 [Compound 380, 2-benzyl-2-azaspiro[3.3]heptan-6-yl (2R,5S)-2,5-dimethyl-4-[6-(trifluoromethyl)quinoxalin-2-yl]piperazine-1-carboxylate] |
| < 10 | C[C@@H]1CN(c2nc3ccc(F)cc3s2)C[C@H](C)N1C(=O)OC1CC2(C1)CN(Cc1ccccc1)C2 [Compound 368, 2-benzyl-2-azaspiro[3.3]heptan-6-yl (2R,6S)-4-(6-fluoro-1,3-benzothiazol-2-yl)-2,6-dimethylpiperazine-1-carboxylate] |
| 100 to 1000 | C[C@@H]1CN(c2cnc(C(F)(F)F)cn2)C[C@H](C)N1C(=O)OC1(C(F)F)CC2(CN(Cc3ccccc3)C2)C1 [Compound 342, 2-benzyl-6-(difluoromethyl)-2-azaspiro[3.3]heptan-6-yl (2R,6S)-2,6-dimethyl-4-[5-(trifluoromethyl)pyrazin-2-yl]piperazine-1-carboxylate] |
| < 10 | C[C@@H]1CN(c2nc3ccc(F)cc3s2)[C@@H](C)CN1C(=O)NC1CC2(C1)CN(Cc1ccccc1)C2 [Compound 233, (2R,5S)-N-{2-benzyl-2-azaspiro[3.3]heptan-6-yl}-4-(6-fluoro-1,3-benzothiazol-2-yl)-2,5-dimethylpiperazine-1-carboxamide] |
| 100 to 1000 | C[C@@H]1CN(c2ncc(C(F)(F)F)cn2)C[C@H](C)N1C(=O)NC1CC2(C1)CN(CC1CC(F)(F)C1)C2 [Compound 333, (2R,6S)-N-{2-[(3,3-difluorocyclobutyl)methyl]-2-azaspiro[3.3]heptan-6-yl}-2,6-dimethyl-4-[5-(trifluoromethyl)pyrimidin-2-yl]piperazine-1-carboxamide] |
| < 10 | C[C@@H]1CN(c2ncc(C(F)(F)F)cn2)C[C@@H](C)N1C(=O)OC1CC2(C1)CN(Cc1ccccc1)C2 [Compound 139, 2-Benzyl-2-azaspiro[3.3]heptan-6-yl (2R,6R)-2,6-dimethyl-4-[5-(trifluoromethyl)pyrimidin-2-yl]piperazine-1-carboxylate] |
| 10 to 100 | C[C@@H]1CN(c2nc3cc(F)ccc3s2)C[C@@H](C)N1C(=O)OC1CC2(C1)CN(Cc1ccccc1)C2 [Compound 439, 2-benzyl-2-azaspiro[3.3]heptan-6-yl (2R,6R)-4-(5-fluoro-1,3-benzothiazol-2-yl)-2,6-dimethylpiperazine-1-carboxylate] |
| < 10 | C[C@@H]1CN(c2ncc(C(F)(F)F)cn2)[C@@H](C)CN1C(=O)OC1CC2(C1)CN(Cc1ccc(F)cc1)C2 [Compound 456, 2-[(4-fluorophenyl)methyl]-2-azaspiro[3.3]heptan-6-yl (2R,5S)-2,5-dimethyl-4-[5-(trifluoromethyl)pyrimidin-2-yl]piperazine-1-carboxylate] |
| < 10 | C[C@@H]1CN(c2nc3cc(C(F)(F)F)cnc3s2)C[C@H](C)N1C(=O)OC1CC2(C1)CN(Cc1ccccc1)C2 [Compound 365, 2-benzyl-2-azaspiro[3.3]heptan-6-yl (2R,6S)-2,6-dimethyl-4-[6-(trifluoromethyl)-[1,3]thiazolo[5,4-b]pyridin-2-yl]piperazine-1-carboxylate] |
| 10 to 100 | C[C@@H]1CN(c2ncc(C(F)(F)F)cn2)[C@H](C)CN1C(=O)OC1CC2(C1)CN(Cc1ccccc1)C2 [Compound 135, 2-benzyl-2-azaspiro[3.3]heptan-6-yl (2R,5R)-2,5-dimethyl-4-[5-(trifluoromethyl)pyrimidin-2-yl]piperazine-1-carboxylate] |
| < 10 | C[C@@H]1CN(c2cnc(OC(F)(F)F)cn2)[C@@H](C)CN1C(=O)OC1CC2(C1)CN(Cc1ccccc1)C2 [Compound 204, 2-benzyl-2-azaspiro[3.3]heptan-6-yl (2R,5S)-2,5-dimethyl-4-[5-(tifluoromethoxy)pyrazin-2-yl]piperazine-1-carboxylate] |
| < 10 | C[C@@H]1CN(c2ncc(OCC3CCC3)cn2)C[C@H](C)N1C(=O)OC1CC2(C1)CN(Cc1ccccc1)C2 [Compound 530, 2-benzyl-2-azaspiro[3.3]heptan-6-yl (2R,6S)-4-[5-(cyclobutylmethoxy)pyrimidin-2-yl]-2,6-dimethylpiperazine-1-carboxylate] |
| 10 to 100 | C[C@@H]1CN(c2ncc(C(F)(F)F)cn2)C[C@H](C)N1C(=O)NC1CC2(C1)CN(Cc1ccccc1O)C2 [Compound 337, (2R,6S)-N-{2-[(2-hydroxyphenyl)methyl]-2-azaspiro[3.3]heptan-6-yl}-2,6-dimethyl-4-[5-(trifluoromethyl)pyrimidin-2-yl]piperazine-1-carboxamide] |
| < 10 | C[C@@H]1CN(c2ncc(F)cn2)C[C@H](C)N1C(=O)OC1CC2(C1)CN(Cc1ccccc1)C2 [Compound 157, 2-benzyl-2-azaspiro[3.3]heptan-6-yl (2R,6S)-4-(5-fluoropyrimidin-2-yl)-2,6-dimethylpiperazine-1-carboxylate] |
| < 10 | COc1ccc2nc(N3C[C@@H](C)N(C(=O)NC4CC5(C4)CN(Cc4ccccc4)C5)[C@H](C)C3)sc2c1 [Compound 242, (2R,6R)-N-{2-benzyl-2-azaspiro[3.3]heptan-6-yl}-4-(6-methoxy-1,3-benzothiazol-2-yl)-2,6-dimethylpiperazine-1-carboxamide] |
| 10 to 100 | C[C@@H]1CN(c2ncc(C(F)(F)F)cn2)C[C@@H](C)N1C(=O)NC1CC2(C1)CN(Cc1ccc(Cl)cc1)C2 [Compound 255, (2R,6R)-N-{2-[(4-chlorophenyl)methyl]-2-azaspiro[3.3]heptan-6-yl}-2,6-dimethyl-4-[5-(trifluoromethyl)pyrimidin-2-yl]piperazine-1-carboxamide] |
| 10 to 100 | C[C@@H]1CN(c2ncc(C(F)F)cn2)C[C@H](C)N1C(=O)OC1CC2(C1)CN(Cc1ccc(F)cc1)C2 [Compound 467, 2-[(4-fluorophenyl)methyl]-2-azaspiro[3.3]heptan-6-yl (2R,6S)-4-[5-(difluoromethyl)pyrimidin-2-yl]-2,6-dimethylpiperazine-1-carboxylate] |
| < 10 | C[C@H]1CN(C(=O)OC2CC3(C2)CN(Cc2ccccc2)C3)CCN1c1ncc(C(F)(F)F)cn1 [Compound 123, 2-benzyl-2-azaspiro[3.3]heptan-6-yl (3S)-3-methyl-4-[5-(trifluoromethyl)pyrimidin-2-yl]piperazine-1-carboxylate] |

| SMILES | Ki [nM] |
| --- | --- |
| O=C(OC1CC2(C1)CN(Cc1ccccc1)C2)N1C2COCC1CN(c1ncc(C(F)(F)F)cn1)C2 [Compound 167, 2-benzyl-2-azaspiro[3.3]heptan-6-yl 7-[5-(trifluoromethyl)pyrimidin-2-yl]-3-oxa-7,9-diazabicyclo[3.3.1]nonane-9-carboxylate] | 10 to 100 |
